Measurements reported in patent US10398682B2, “Methods and compositions to prevent or treat bacterial infections” (THE BOARD OF REGENTS OF THE UNIVERSITY OF TEXAS SYSTEM, priority 2013, dated 2019).
In brackets after ≈: the same amount, converted by molar mass.

How the values were obtained:
[1] = tested on: Acinetobacter baumannii; assay: SIgA breakdown / secretory component liberation by Acinetobacter baumannii (Western blot); type: cell-based; conditions: for SC liberation / SIgA reduction: 2 hours after incubation
Procedure: Acinetobacter baumannii was incubated with 50 μg/mL SIgA to examine breakdown of the immunoglobulin. Breakdown of SIgA by A. baumannii was observed by liberation of secretory component from dimeric IgA. Goat anti-human secretory component (free and bound) antibody was used to monitor this occurrence though Western blot. A mixture of A. baumannii strain CI 79 was prepared in three concentrations—10^7, 10^6, and 10^5 CFU/mL—to determine whether SIgA breakdown was dose dependent with respect to bacterial concentration FIG. 1A. […] Next, two competitive inhibitors of reductase enzymes targeting the thioredoxin fold (-C-X-X-C-) motif typically found in thiol-reductase enzymes (thioredoxin, glutathione, thioredoxin reductase, etc) were identified. The first, dithionitrobenzoic acid (Ellman's reagent) is often used as a colorimetric substrate to monitor thioredoxin activity as it produces a bright yellow color upon cleavage of the disulfide bond within the molecule. The second is PX-12. […] Although not shown here, inhibition was still evident at 24 hours with Ellman's reagent, PX-12 inhibition seemed to be overcome by the bacteria after about 12 hours. […] (Error bars represent±SEM in all graphs; statistical differences determined by ANOVA with Dunnett correction; *significance p<0.01; **p<0.001).

[2] = tested on: A. baumannii strain CI 79; assay: Bacterial adherence to mouse intestinal sections; type: cell-based, Acinetobacter baumannii
Procedure: Intestinal sections were cut down one side to expose the inner lumen of the intestine and individually placed in suspensions of A. baumannii strain CI 79 (10^7 CFU/mL). The sections were incubated in this mixture for 30 minutes, washed twice in 250 volumes of sterile PBS and soaked in 500 volumes of PBS (volume of section ˜50-100 μL) for five minutes. The remaining bound bacteria were enumerated through homogenization of each section into single cell suspensions in 10 mL sterile PBS followed by dilution plating.

[3] = tested on: multi-drug resistant (MDR) Acinetobacter baumannii clinical isolates; assay: Minimum inhibitory concentration (MIC) determination; type: cell-based
Procedure: PX-12 concentrations used in these experiments approximated the concentration reported “well tolerated” by mice (˜500 μg/mouse; 500 μg/mL for this experiment). […] Furthermore, this concentration was also bactericidal leading us to believe it may potentially be useful as a new antimicrobial compound for treating MDR Acinetobacter baumannii. (Bacterial concentrations used in presented studies ˜100× higher than recommended by CLSI standards)

[4] = tested on: Acinetobacter baumannii; assay: Repeat MIC experiment performed to CLSI standards; type: cell-based
[5] = humans; 300 mg/m^2 dose level; cited from earlier work
[6] = mouse, in vivo; cited from earlier work
[7] = cation adjusted Mueller Hinton broth, ~5×10^5 CFU/mL, 64 to 0.5 μg/mL tested

SMILES	SC liberation ([1]; inhibitor 15 μg/mL)	SIgA reduction ([1]; inhibitor 15 μg/mL)	time after which inhibition is overcome by the bacteria ([1]; not shown)	SIgA breakdown by Acinetobacter baumannii ([1]; up to 2 hours following treatment with 18 μg/mL)	bacterial adherence to intestinal sections ([2]; 18 μg/mL, sections from WT C57BL/6 mice)	reduction of bacterial attachment ([2]; WT intestinal sections as 100% control, A. baumannii CI 79 10^7 CFU/mL, 30 minutes) [%]	bactericidal effect at the MIC ([3]; 31.25 μg/mL)	bacterial pellet size ([3]; 500 μg/mL)	MIC ([3]; Acinetobacter baumannii, MDR clinical isolates, with one exception, bacterial concentrations ~100× higher than CLSI) [µg/mL]	MBC [4, 7]	MIC [4, 7]	type of antimicrobial activity ([4]; concluded from MIC and MBC)	dose-limiting toxicities [5]	concentration reported well tolerated [6] [μg/mouse]	SC liberation ([1]; inhibitor 1 mM)	SIgA reduction ([1]; inhibitor 1 mM)	inhibition of SIgA reduction at 24 hours ([1]; 24 hours, not shown)	SIgA breakdown by Acinetobacter baumannii ([1]; after addition of the substrate, concentration not given)
CCC(C)SSc1ncc[nH]1 (stereo not drawn) [PX-12, 1-methylpropyl 2-imidazolyl disulfide]	completely ablated	completely ablated	about 12 hours	significantly reduced	significantly inhibits	40	bactericidal	visible decrease	31.2 (≈ 166 µM)	low	low	bactericidal activity	Grade 3 hypoxia and Grade 2 reversible bilateral pneumonitis	~500				
O=C(O)c1cc(SSc2ccc([N+](=O)[O-])c(C(=O)O)c2)ccc1[N+](=O)[O-] [dithionitrobenzoic acid]															completely ablated	completely ablated	still evident	significantly reduced
